In patent publication US7544814B2, “[3.2.0] Heterocyclic compounds and methods of using the same” (Nereus Pharmaceuticals, Inc., priority 2004, dated 2009):
Values joined by “and” are separate entries in the source; they are usually repeats but may differ in a detail not shown here. Identical values can stand only once. Like-named read-outs stand apart in the source and are kept apart here.

Tests used:
[1] = target: T1, trypsin-like activity of purified rabbit muscle 20S proteasome (Oryctolagus cuniculus, UniProt G1SWK8); test: biochemical
T1 sequence (G1SWK8 1-271): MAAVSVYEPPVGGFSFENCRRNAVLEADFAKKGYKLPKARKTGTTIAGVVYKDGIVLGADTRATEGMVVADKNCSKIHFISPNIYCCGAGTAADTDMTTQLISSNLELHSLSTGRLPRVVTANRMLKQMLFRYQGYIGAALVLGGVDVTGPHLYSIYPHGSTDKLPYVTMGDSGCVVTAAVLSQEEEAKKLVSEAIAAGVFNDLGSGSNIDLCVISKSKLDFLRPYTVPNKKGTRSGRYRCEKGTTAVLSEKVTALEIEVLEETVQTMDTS

[2] = target: T2, caspase-like activity of purified rabbit muscle 20S proteasome (Oryctolagus cuniculus, UniProt A0A5F9DQW2); test: In vitro inhibition of 20S proteasome caspase-like activity (Z-LLE-AMC)
T2 sequence (A0A5F9DQW2 1-212): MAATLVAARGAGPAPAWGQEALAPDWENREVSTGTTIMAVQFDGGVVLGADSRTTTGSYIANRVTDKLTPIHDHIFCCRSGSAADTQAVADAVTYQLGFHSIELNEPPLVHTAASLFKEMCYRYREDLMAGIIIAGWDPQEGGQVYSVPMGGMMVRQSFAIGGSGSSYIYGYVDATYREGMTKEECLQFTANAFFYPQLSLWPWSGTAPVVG

[3] = target: T3, chymotrypsin-like activity of purified rabbit muscle 20S proteasome (Oryctolagus cuniculus, UniProt G1T4Q9); test: In vitro inhibition of 20S proteasome chymotrypsin-like activity (suc-LLVY-AMC)
T3 sequence (G1T4Q9 1-263): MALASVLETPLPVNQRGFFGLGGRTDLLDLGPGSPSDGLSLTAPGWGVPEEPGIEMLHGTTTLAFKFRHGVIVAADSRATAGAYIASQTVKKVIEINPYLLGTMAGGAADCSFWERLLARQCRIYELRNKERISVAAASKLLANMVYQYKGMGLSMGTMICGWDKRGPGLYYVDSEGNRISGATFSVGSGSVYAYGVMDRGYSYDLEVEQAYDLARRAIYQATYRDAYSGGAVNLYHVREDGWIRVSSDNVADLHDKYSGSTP

NCI-H292 = test: Cell growth inhibition (resazurin), NCI-H292; details: for EC50: Homo sapiens, NCI-H292, 48 h
[4] = target: T1, trypsin-like activity of purified rabbit muscle 20S proteasome; test: In vitro inhibition of 20S proteasome trypsin-like activity (Boc-LRR-AMC)
RPMI 8226 = test: Cell growth inhibition (resazurin), RPMI 8226; details: for cytotoxicity against RPMI 8226, in words: from EC50 values
NF-κB = test: NF-κB-mediated luciferase reporter gene assay, HEK293 NF-κB/Luc cells, TNF-α stimulation; assay type: cell-based, human; details: for EC50: Homo sapiens; for effect on luciferase activity upon TNF-α stimulation, in words: pretreatment of NF-κB/Luc 293 cells
Description: The HEK293 NF-κB/luciferase reporter cell line is a derivative of the human embryonic kidney cell line (ATCC; CRL-1573) and carries a luciferase reporter gene under the regulation of 5× NF-κB binding sites. […] When performing the luciferase assay, the DMEM basal medium was replaced with phenol-red free DMEM basal medium and the G418 was omitted.
For NF-κB-mediated luciferase assays, HEK293 NF-κB/luciferase cells were seeded at 1.5×10^4 cells/well in 90 μl phenol-red free DMEM complete medium into Corning 3917 white opaque-bottom tissue culture plates. For Formula II-2, Formula II-4, Formula II-5A, and Formula II-18, a 400 μM starting dilution was made in 100% DMSO and this dilution was used to generate a 8-point half log dilution series. […] For Formula II-20, a 2.5 mM or 8 mM starting solution was made in 100% DMSO and the final test concentrations ranged from 6.3 μM to 2.0 nM or 20 μM to 6.3 nM, respectively. The plates were returned to the incubator for 1 hour. After 1 hr pretreatment, 10 μl of a 50 ng/ml TNF-α solution, prepared in the phenol-red free DMEM medium was added, and the plates were incubated for an additional 6 hr.
At the end of the TNF-α stimulation, 100 μl of Steady Lite HTS luciferase reagent (Packard Bioscience) was added to each well and the plates were left undisturbed for 10 min at room temperature before measuring the luciferase activity. The relative luciferase units (RLU) were measured by using a Fusion microplate fluorometer (Packard Bioscience).

U266 = test: Cell growth inhibition (resazurin), U266; details: for EC50: 48 hours drug exposure; for cytotoxicity against U266, in words: from EC50 values
OVCAR-3 = test: Cell growth inhibition (resazurin), OVCAR-3; details: for EC50: 48 hours drug exposure
B16-F10 = test: Cell growth inhibition (resazurin), B16-F10
MDA-MB-231 = test: Cell growth inhibition (resazurin), MDA-MB-231
PC-3 = test: Cell growth inhibition (resazurin), PC-3; assay type: cell-based, human
HT-29 = test: Cell growth inhibition (resazurin), HT-29
[5] = EC50 Caspase-like, Table 6, values in μM
[6] = EC50 Chymotrypsin-like, Table 6, values in nM
[7] = EC50 values, chymotrypsin-like activity, summary of Table 6
[8] = Homo sapiens, RPMI-8226, 48 h, read-out: RPMI 8226 EC50, Table 2, 48 hours drug exposure, mean ± SD where n≥3
[9] = HEK293, read-out: EC50, NF-κB-mediated luciferase reporter gene assay, Table 5, values in μM, 1 hr pretreatment, TNF-α 6 hr
[10] = Homo sapiens, U-266, 48 h, read-out: U266 EC50, Table 2
[11] = read-out: RPMI 8226 EC50, Table 2, 48 hours drug exposure, mean ± SD where n≥3
[12] = EC50 Caspase-like, Table 6, values in nM

**Q.** With `CC[C@H]1C(=O)N[C@@]2([C@@H](O)C3CCCCC3)C(=O)O[C@@]12C` [Formula II-3] as the molecule, how does the EC50 [1] read?
**A.** 5500 nM and 7700 nM

**Q.** And the EC50 [2, 5]?
**A.** > 20 µM

**Q.** What about the EC50 [3, 6] of the same molecule?
**A.** 964 nM

**Q.** What about the EC50 [3, 7] of the same molecule?
**A.** 207 to 964 nM

**Q.** What about the EC50 (NCI-H292; read-out: EC50 against NCI-H292) of the same molecule?
**A.** > 20000 nM

**Q.** And the “inhibition of the trypsin-like activity of the 20S proteasome, in words” value [4]?
**A.** able to inhibit

**Q.** What about the EC50 (RPMI 8226; [8]) of the same molecule?
**A.** > 20000 nM

**Q.** Which results are given for `CC[C@@]12OC(=O)[C@]1([C@@H](O)[C@@H]1C=CCCC1)NC(=O)[C@@H]2CCCl` [Formula II-24C]?
**A.** EC50 [1]: 3300 nM and 3100 nM; EC50 (NF-κB; [9]): 5.3 µM; effect on luciferase activity upon TNF-α stimulation, in words (NF-κB): dose-dependent decrease; EC50 [2, 5]: > 20 µM; EC50 (U266; [10]): 1150 nM; cytotoxicity against U266, in words (U266): cytotoxic; EC50 (U266; read-out: U266 EC50, Table 2): 825 nM; EC50 ([3]; EC50 Chymotrypsin-like, Table 6, values in μM): 2000 nM; EC50 ([3]; EC50 values, chymotrypsin-like activity, range or bound stated in text, summary of Table 6): 1400 to 10600 nM; inhibition of the trypsin-like activity of the 20S proteasome, in words ([4]; under the conditions tested): able to inhibit; EC50 (RPMI 8226; [8]): 2320 nM; cytotoxicity against RPMI 8226, in words (RPMI 8226): cytotoxic; EC50 (RPMI 8226; [11]): 1640 nM

**Q.** How did the EC50 [1] turn out when `C[C@@]12OC(=O)[C@]1(C(O)[C@@H]1C=CCCC1)NC(=O)[C@@H]2CCI` (single isomer, unassigned) [Formula II-19] was run?
**A.** 13 nM and 15 nM

**Q.** And the EC50 (NF-κB; HEK293, read-out: EC50, NF-κB-mediated luciferase reporter gene assay, Table 5, values in nM, 1 hr pretreatment, TNF-α 6 hr)?
**A.** 0.007 µM

**Q.** What about the EC50 (NF-κB; HEK293, read-out: NF-κB EC50, Table 12) of the same molecule?
**A.** 0.01 µM

**Q.** What about the “effect on luciferase activity upon TNF-α stimulation, in words” value (NF-κB) of the same molecule?
**A.** dose-dependent decrease

**Q.** What about the EC50 (OVCAR-3; Homo sapiens, OVCAR-3, 48 h, read-out: EC50 against OVCAR-3, Table 1) of the same molecule?
**A.** 24 nM

**Q.** And the “cytotoxicity against OVCAR-3, in words” value (OVCAR-3; from EC50 values)?
**A.** cytotoxic

**Q.** And the EC50 (OVCAR-3; read-out: EC50 against OVCAR-3, Table 1)?
**A.** 20 nM

**Q.** And the EC50 [2, 12]?
**A.** 0.573 µM and 0.739 µM

**Q.** And the EC50 ([2]; EC50 values, caspase-like activity, summary of Table 6)?
**A.** 0.213 to 0.85 µM

**Q.** And the EC50 ([2]; Proteasome Caspase-like EC50, Table 12)?
**A.** 0.573 µM and 0.739 µM

**Q.** What about the EC50 (B16-F10; Mus musculus, B16-F10, 48 h, read-out: EC50 against B16-F10, Table 1, 48 hours drug exposure, mean ± SD where n≥3) of the same molecule?
**A.** 13 ± 1.9 nM

**Q.** And the “cytotoxicity against B16-F10, in words” value (B16-F10; from EC50 values)?
**A.** cytotoxic

**Q.** And the EC50 (U266; Homo sapiens, U-266, 48 h, read-out: EC50 against U266, Table 1)?
**A.** 3.2 nM

**Q.** And the EC50 (U266; [10])?
**A.** 3.2 nM

**Q.** What about the “cytotoxicity against U266, in words” value (U266) of the same molecule?
**A.** cytotoxic

**Q.** And the EC50 (U266; read-out: EC50 against U266, Table 1)?
**A.** 3.4 nM

**Q.** And the EC50 (U266; read-out: U266 EC50, Table 2)?
**A.** 3.4 nM

**Q.** What about the EC50 [3, 6] of the same molecule?
**A.** 3 nM

**Q.** And the EC50 ([3]; Proteasome Chymotrypsin-like EC50, Table 12)?
**A.** 3 nM

**Q.** And the EC50 (NCI-H292; read-out: EC50 against NCI-H292, Table 1, 48 hours drug exposure, mean ± SD where n≥3)?
**A.** 27 ± 3.8 nM

**Q.** And the “cytotoxicity against NCI-H292, in words” value (NCI-H292; from EC50 values)?
**A.** cytotoxic

**Q.** And the EC50 (MDA-MB-231; Homo sapiens, MDA-MB-231, 48 h, read-out: EC50 against MDA-MB-231, Table 1, 48 hours drug exposure, mean ± SD where n≥3)?
**A.** 14 ± 3.2 nM

**Q.** And the “cytotoxicity against MDA-MB-231, in words” value (MDA-MB-231; from EC50 values)?
**A.** cytotoxic

**Q.** And the “inhibition of the trypsin-like activity of the 20S proteasome, in words” value ([4]; under the conditions tested)?
**A.** able to inhibit

**Q.** And the EC50 (RPMI 8226; Homo sapiens, RPMI-8226, 48 h, read-out: EC50 against RPMI 8226, Table 1, 48 hours drug exposure)?
**A.** 5.9 nM

**Q.** And the EC50 (RPMI 8226; [8])?
**A.** 5.9 nM

**Q.** And the EC50 (RPMI 8226; Homo sapiens, RPMI-8226, read-out: Cytotoxicity RPMI EC50, Table 12)?
**A.** 6 nM

**Q.** And the “cytotoxicity against RPMI 8226, in words” value (RPMI 8226)?
**A.** cytotoxic

**Q.** And the EC50 (RPMI 8226; read-out: Cytotoxicity RPMI EC50, Table 12)?
**A.** 7 nM

**Q.** What about the EC50 (RPMI 8226; read-out: EC50 against RPMI 8226, Table 1, 48 hours drug exposure) of the same molecule?
**A.** 7.1 nM

**Q.** What about the EC50 (RPMI 8226; [11]) of the same molecule?
**A.** 7.1 nM

**Q.** What about the EC50 (PC-3; Homo sapiens, PC-3, 48 h, Table 1, 48 hours drug exposure, mean ± SD where n≥3, read-out: EC50 against PC-3) of the same molecule?
**A.** 29 ± 4 nM

**Q.** What about the “cytotoxicity against PC-3, in words” value (PC-3; from EC50 values) of the same molecule?
**A.** cytotoxic

**Q.** What about the EC50 (HT-29; Homo sapiens, HT-29, 48 h, read-out: EC50 against HT-29, Table 1, 48 hours drug exposure, mean ± SD where n≥3) of the same molecule?
**A.** 11 ± 1.6 nM

**Q.** What about the “cytotoxicity against HT-29, in words” value (HT-29; from EC50 values) of the same molecule?
**A.** cytotoxic

**Q.** Which results are given for `CCC[C@H]1C(=O)N[C@@]2([C@@H](O)[C@@H]3C=CCCC3)C(=O)O[C@@]12C` [Formula II-30]?
**A.** EC50 [1]: 905 nM and 1200 nM; EC50 (NF-κB; [9]): 2.2 µM; effect on luciferase activity upon TNF-α stimulation, in words (NF-κB): dose-dependent decrease; EC50 [2, 12]: 0.956 µM; EC50 [2, 5]: 1.3 µM; EC50 ([2]; EC50 values, caspase-like activity, range in mixed units, summary of Table 6, range from nM to μM): 0.956 to 8.7 µM; EC50 (U266; [10]): 889 nM; cytotoxicity against U266, in words (U266): cytotoxic; EC50 (U266; read-out: U266 EC50, Table 2): 1240 nM; EC50 [3, 6]: 21 nM; EC50 [3, 7]: 13 to 88 nM; inhibition of the trypsin-like activity of the 20S proteasome, in words ([4]; under the conditions tested): able to inhibit; EC50 (RPMI 8226; [8]): 4900 nM; cytotoxicity against RPMI 8226, in words (RPMI 8226): cytotoxic; EC50 (RPMI 8226; [11]): 4160 nM
